Patent US7259145B2, “Mechanically activated channel blocker” (The Research Foundation of State University of New York, priority 2004, dated 2007)
“Also recorded” adds a separate entry of the source. Non-standard residues stand in square brackets, D forms with d. No end group written: not given here.

Tests used:
[1] = test system: stretch-activated channels (SACs); test: SAC currents, outside-out patch of rat astrocytes (pressure clamp); type: cell-based; conditions: for inhibition of SACs (averaged current): 5 μM, rat astrocyte outside-out patch, FIG. 2
Method: (§1) Primary reactive rat astrocytes cultures (passages 4 to 10) were prepared as previously described. Primary cultures of chick heart cells were prepared from 11-day-old embryos as previously described (Bett et al., J. Membr. Biol. 173, 237-254, 2000).
(§2) Outside-out patches were formed using pipettes containing 140 mM KCl, 2 mM MgCl2, 10 mM HEPES and 0.5 mM EGTA (as K ? salts). SAC currents were recorded using an Axopatch 200B patch clamp, with pClamp9 software and a Digidata 1322A acquisition system (Axon Instruments). Pressure was applied to the patch pipette with an HSPC-1 pressure clamp, and the patch was perfused using an ALA MP285 perfusion system (ALA Scientific Instruments). GsMTx4 or analog was dissolved in the perfusion solution: 140 mM NaCl, 10 mM Na-HEPES, 5 mM KCl, and 1 mM MgCl2. All experiments were repeated […] times.

gA channels = test: Gramicidin (gA) channel gating in lipid bilayer; type: biochemical
Method: FIG. 3 is a representation of the effect of GsMTx4 on gA channels. a, Current traces before and after addition of 200 nM GsMTx4 to both sides of a bilayer doped with chain-shortened des-Val 1-Gly 2-gA (gA2(13)) and [Ala 1]gA (AgA(15)) (numbers in parenthesis denote number of residues in the sequence): gA2 is the enantiomer of gA20. b, c, Single-channel currents (b) and lifetimes (c) as a function of GsMTx4 concentration (see Methods). d, Average lifetime (t) as a function of channel length, helix sense and identity of the aromatic at the channel/solution interface. gA2(13) and AgA(15) as above, AgA2(15) is [D-Ala 1]gA2, gT is [Tyr9,11,13,15]gA (ref. 21). 200 nM GsMTx4; columns and error bars denote mean±s.d. (n≧3).
The effect of L-GsMTx-4 on gA gating was first determined. gA channels are dimers formed by the transbilayer association of monomers in opposing monolayers (O'Connell et al., Science 250, 1256-1259, 1990). Channel formation is generally associated with local bilayer thinning, which makes gA monomer ⇄ dimer equilibrium and thus the channel lifetime and appearance rate sensitive to bilayer thickness, elastic moduli and curvature stress. Thus, if GsMTx4 binds to the lipid bilayer, one would expect it to also alter the lipid packing adjacent to the channel and thus the gA gating kinetics and, because it is cationic decrease the channel current.

[2] = test system: stretch-activated channels (SACs); test: SAC currents, outside-out patch of chick heart cells; type: cell-based
Method: as §1, §2

TRPC1 = test: Stretch activated channels in CHO cells transfected to express TRPC1; type: cell-based; conditions: CHO cells expressing TRPC1
cationic SACs [3] = test: Inhibition and gating of cationic SACs in vertebrate cell types (affinity, apparent rates); type: cell-based
Method: GsMTx4 inhibits ubiquitous cationic SACs in a variety of vertebrate cell types (200-600 nM, for example, chick heart, rat astrocytes and skeletal muscle, and human smooth muscle) (Gottlieb et al., Current Drug Targets—CNS & Neurological Disorders 3:287-295, 2004) despite the fact that they have different kinetic properties and presumably different structure. […] While not intending to be bound by any particular theory, it is believed, based on predictions using the Poisson-Boltzmann models, that this effect is seen when GsMTx4 is located within about 1.5 nm of the channel vestibule.
To determine if GsMTx4 functions by altering bilayer properties, using the tryptophan fluorescence (Ladokhin et al., supra) of GsMTx4, we measured its binding to large unilamellar lipid vesicles. The partition coefficient, defined as ([GsMTx4]bil/[Lipid])/([GsMTx4]aq/[H2O]) (where the subscripts denote the bilayer and aqueous phases, respectively, for example see White et al., Methods Enzymol. 295, 62-87, 1998), was ˜3×10^5 corresponding to an adsorption coefficient of 10 ^−3 cm (defined as ^2bil/[GsMTx4 ]aq, where ^2bil denotes the surface density, in moles per unit area). […] This has two implications. First, the intrinsic affinity between a lipid-bound GsMTx4 and the channel could be quite modest and yet account for the observed KD (Kim et al., Biophys. J. 60, 135148, 1991). Second, the mean surface density of GsMTx4 is sufficiently high that fast exchange (50 ms) between the bulk bilayer and the lipids adjacent to the channel can alter the local (and global) bilayer mechanical properties. The apparent association and dissociation rates for SAC effects (Ka≈10^6 M^−1 s^−1, KD≈0.2 s^−1) are consistent with such a fast exchange (as well as slower, more specific binding).

[4] = Binding to large unilamellar lipid vesicles by tryptophan fluorescence; type: physicochemical
Method: Fluorescence measurements were performed as described by Ladokhin et al. (Anal. Biochem. 285, 235245, 2000) with an AMJNCO-Bowman Series 2 spectrofluorimeter. The excitation and emission wavelengths were 280 nm (8 nm band pass, 08 polarizer) and 346 nm (16 nm band pass, 908 polarizer). Large unilamellar vesicles of egg lecithin (Avanti Polar Lipids) were formed by extrusion. Tryptophan (Sigma) and GsMTx4 titration experiments were performed in 8 mM phosphate buffer containing 1 mM EGTA at pH 7. Three spectra were collected at each lipid concentration with both tryptophan and GsMtx4 (both at 30μM). After background subtraction, the mean fluorescence intensity at each lipid concentration was corrected for vesicle scattering (Ladokhin et al., Anal. Biochem, 285, 235245, 2000) and normalized to the zero lipid fluorescence intensity. The results are reported assuming a vesicle diameter of 130 nm, and area per lipid in the monolayer of 0.7 nm2.
To determine if GsMTx4 functions by altering bilayer properties, using the tryptophan fluorescence (Ladokhin et al., supra) of GsMTx4, we measured its binding to large unilamellar lipid vesicles. […]

cationic SACs [5] = conditions: chick heart, rat astrocytes and skeletal muscle, human smooth muscle; cited from earlier work
[6] = 5 mM GsMTx4 [sic], chick heart outside-out patch

In the case of “D-GsMTx4: All-D-amino-acid enantiomer of GsMTx4, SEQ ID NO:1 GCLEFWWKCNPNDDKCCRPKLKCSKLFKLCNFSF-amide (G[dC][dL][dE][dF][dW][dW][dK][dC][dN][dP][dN][dD][dD][dK][dC][dC][dR][dP][dK][dL][dK][dC][dS][dK][dL][dF][dK][dL][dC][dN][dF][dS][dF]-NH2; not fully specified (bridges); printed as GCLEFWWKCNPNDDKCCRPKLKCSKLFKLCNFSF-amide; ends and bridges not checked; also: three disulfides after oxidative folding, pairing not given here)”, the “inhibition of SACs (averaged current)” value [1] is reported as “equivalent efficacy to the wild type L-form; also recorded: inhibit SACs with similar efficacy to GsMTx4; also recorded: at least as potent and may be more potent than L-GsMTx-4”, the “increase in gA channel appearance rates” value (gA channels; 400 nM D-GsMTx4) is reported as 10 fold and the “increase in gA channel lifetime” value (gA channels; 400 nM D-GsMTx4) is reported as 4 fold.

For GsMTx4, the “suppression of average inward current” value ([1]; 5 μM GsMTx4 (b40 also prints 5 mM), outside-out astrocyte patch) was 80%, the “open state dwell time distribution” value ([1]; 5 μM GsMTx4, data not shown) was “not affected” and the “inhibition of SACs (averaged current)” value [1] was “both inhibit SACs”. The “membrane tension required for SAC activation” value ([1]; applied to extracellular face, FIGS. 1a and 1b) was “increasing the membrane tension required for activation”, the “reduction of average inward currents” value [2, 6] was 70% and the “reduction of average outward currents” value [2, 6] was 90%. For the same substance, the “unitary current amplitude, inward” value ([2]; 5 mM GsMTx4 [sic], 250 mV pipette potential as printed, control 1.74 pA) was 1.58 pA, the “unitary current amplitude, outward” value ([2]; 5 mM GsMTx4 [sic], pipette potential printed 150 mV / 50 mV, control 1.10 pA) was 1.08 pA and the “change in outward unitary current amplitude” value ([2]; in presence of GsMTx4) was “no change; also recorded: no observable effect”. The “reduction in inward unitary current amplitude” value ([2]; in presence of GsMTx4) was 10%, the “inhibition of stretch activated channels” value (TRPC1) was “inhibited stretch activated channels” and the “apparent association rate for SAC effects (Ka)” value (cationic SACs [3]) was “≈ 10^6 M^−1 s^−1”. The “apparent dissociation rate for SAC effects (KD)” value (cationic SACs [3]) was “≈ 0.2 s^−1”, the Kd (cationic SACs [3]; SAC gating, read-out: effective KD for gating) was 500 nM and the adsorption coefficient ([4]; corresponding to the partition coefficient) was 10 ^−3 cm. The “partition coefficient ([GsMTx4]bil/[Lipid])/([GsMTx4]aq/[H2O])” value ([4]; large unilamellar lipid vesicles, pH 7) was ~3×10^5, the gA single-channel current (gA channels; FIG. 3b) was “reduces the single-channel current” and the “increase in gA channel appearance rate” value (gA channels; GsMTx4, FIG. 3) was 10-25 fold. The “increase in gA open channel lifetime” value (gA channels; GsMTx4, FIG. 3c) was “approximately 2 fold” and the “concentration inhibiting cationic SACs” value (cationic SACs [5]) was 200 to 600 nM.
